Values joined by “and” are separate entries in the source; they are usually repeats but may differ in a detail not shown here. Equal values may be shown once.
Target: T1, Thromboxane A2 receptor (Mus musculus, UniProt P30987)
T1 sequence (P30987 whole entry): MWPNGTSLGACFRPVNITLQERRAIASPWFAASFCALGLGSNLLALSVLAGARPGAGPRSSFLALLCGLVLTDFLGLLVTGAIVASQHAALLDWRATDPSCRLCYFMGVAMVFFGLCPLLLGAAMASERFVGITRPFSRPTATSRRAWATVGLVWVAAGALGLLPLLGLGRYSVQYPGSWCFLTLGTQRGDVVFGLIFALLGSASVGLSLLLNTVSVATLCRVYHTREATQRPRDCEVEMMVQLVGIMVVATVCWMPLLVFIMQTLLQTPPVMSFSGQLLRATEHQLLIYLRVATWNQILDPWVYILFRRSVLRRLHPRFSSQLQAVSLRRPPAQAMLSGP

Ki	Structure (SMILES)
> 10000 nM	CCCCC[C@H](O)/C=C/[C@H]1[C@H](O)CC(=O)[C@@H]1C/C=C\CCCC(=O)O [DINOPROSTONE]
770 nM	CCCCC(C)(C)[C@H](O)/C=C/[C@@H]1[C@@H](C/C=C\CCCC(=O)O)[C@@H](O)C[C@H]1O
1500 nM	CCCCC[C@H](O)/C=C/C1C[C@H]2C[C@H](C2)[C@@H]1C/C=C\CCCC(=O)O (some centres undefined) [CAS_74034-56-3]
> 10000 nM	CCCCC[C@H](O)/C=C/[C@H]1C2OC2C(=O)[C@@H]1C/C=C\CCCC(=O)O (stereo partly drawn) [10alpha,11alpha-oxido PGA2]
> 10000 nM	CCCCC[C@@H](O)/C=C/[C@H]1[C@H](O)CC(=O)[C@@H]1CCCCCCC(=O)O
> 10000 nM	CCCCCC(O)CC=C1C(=O)C=CC1CC=CCCCC(=O)O (centres undefined) [CAS_41598-07-6]
> 10000 nM	CCCCC[C@H](O)/C=C/C1[C@H](O)C[C@H](O)[C@@H]1C/C=C\CCCC(=O)O (stereo partly drawn) [(Z)-7-[(1R,3R,5S)-3,5-Dihydroxy-2-((E)-(S)-3-hydroxy-oct-1-enyl)-cyclopentyl]-hept-5-enoic acid]
440 nM	CCCCCC(O)C=CC1C2CCC(C2)C1CC=CCCCC(=O)O (centres undefined) [9,11-ethano PGH2]
460 nM	O=C(O)CCCC=CCC1C2CCC(C2)C1C=NNC(=O)Nc1ccccc1 (centres undefined) [NSC_5311388]
> 10000 nM	CCCCCC(C)(O)C=CC1C(O)CC(O)C1CC=CCCCC(=O)O (centres undefined) [NSC_37255]
1100 nM	CCCCC[C@H](O)CC[C@H]1c2cc([nH]n2)[C@@H]1CC=CCCCC(=O)O [9,11-AzoPGH2]
1400 nM	CCCCC[C@@H](O)/C=C/[C@H]1C[C@H]2C[C@@H]([C@@H]1C/C=C\CCCC(=O)O)C2(C)C [CAS_71111-01-8]
320 nM	O=C(O)CCCC=CCC1C(O)CC(O)C1C=CC(O)COc1ccc(F)cc1 (centres undefined) [CAS_188200]
1300 nM	CCCCC[C@H](O)/C=C/[C@H]1O[C@H]2C[C@H](O2)[C@@H]1C/C=C\CCCC(=O)O [CAS_57576-52-0]
360 nM	CCCCC[C@H](O)/C=C/[C@@H]1[C@@H](/C=C\CCCC(=O)O)[C@H]2CO[C@@H]1C2 [11,9-epoxymethano PGH2]
1200 nM	O=C(O)CCC/C=C/C[C@H]1C2C=CC(C2)[C@@H]1/C=C/[C@H](O)COc1ccc(F)cc1 (some centres undefined) [EP011]
> 10000 nM	COc1cc(CC2NCCc3cc(O)c(O)cc32)cc(OC)c1OC (centres undefined) [1-(3,4,5-Trimethoxy-benzyl)-1,2,3,4-tetrahydro-isoquinoline-6,7-diol]

Structure (SMILES)	Ki
CCCCC[C@H](O)/C=C/[C@@H]1[C@@H](C/C=C\CCCC(=O)O)[C@@H]2C[C@H]1OO2 [PGH2]	200 nM and 1600 nM
CCCCC/C=C\C/C=C\C/C=C\C/C=C\CCCC(=O)O [[1-14C]Arachidonic acid]	> 10000 nM

From BindingDB's records for doi:10.1111/j.1476-5381.1983.tb10541.x (University of Edinburgh, 1983)
